Measured values as given in patent US8309718B2, “4-pyrazolyl-N-arylpyrimidin-2-amines and 4-pyrazolyl-N-heteroarylpyrimidin-2-amines as janus kinase inhibitors” (Incyte Corporation, priority 2007, dated 2012).
pIC50: −log10 of the molar value.

What follows are molecules tested against T1, human JAK2 (Homo sapiens, UniProt O60674) (assay: In vitro JAK kinase assay (HTRF, phosphorylation of biotinylated peptide)). Details: catalytic domain a.a. 828-1132, 30 μM ATP, 500 nM peptide, room temperature 1 hr; read-out: JAK-2 IC50.
T1 construct: JAK2 (a.a. 828-1132); His tag (N); made in house; host or cells: insect cells (baculovirus)
Type: biochemical
Protocol: Compounds herein were tested for inhibitory activity of JAK targets according to the following in vitro assay described in Park et al, Analytical Biochemistry 1999, 269, 94-104. The catalytic domains of human JAK1 (a.a. 837-1142), JAK2 (a.a. 828-1132) and JAK3 (a.a. 781-1124) with an N-terminal His tag were expressed using baculovirus in insect cells and purified. The catalytic activity of JAK1, JAK2 or JAK3 was assayed by measuring the phosphorylation of a biotinylated peptide. The phosphorylated peptide was detected by homogenous time resolved fluorescence (HTRF). IC50s of compounds were measured for each kinase in the reactions that contain the enzyme, ATP and 500 nM peptide in 50 mM Tris (pH 7.8) buffer with 100 mM NaCl, 5 mM DTT, and 0.1 mg/mL (0.01%) BSA. The ATP concentration in the reactions was 90 μM for JAK1, 30 μM for Jak2 and 3 μM for JAK3. Reactions were carried out at room temperature for 1 hr and then stopped with 20 μL 45 mM EDTA, 300 nM SA-APC, 6 nM Eu-Py20 in assay buffer (Perkin Elmer, Boston, Mass.). Binding to the Europium labeled antibody took place for 40 minutes and HTRF signal was measured on a Fusion plate reader (Perkin Elmer, Boston, Mass.). Certain of the above compounds were tested according to this assay.

T1 sequence (O60674 828-1132): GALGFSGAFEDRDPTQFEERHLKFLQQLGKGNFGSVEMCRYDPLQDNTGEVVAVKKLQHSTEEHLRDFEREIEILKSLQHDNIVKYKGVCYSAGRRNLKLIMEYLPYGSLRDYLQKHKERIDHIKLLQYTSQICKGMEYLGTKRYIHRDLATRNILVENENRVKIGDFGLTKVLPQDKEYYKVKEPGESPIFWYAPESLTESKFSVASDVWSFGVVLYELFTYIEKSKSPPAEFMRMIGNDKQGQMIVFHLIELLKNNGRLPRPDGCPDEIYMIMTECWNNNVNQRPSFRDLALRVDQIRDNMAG

pIC50, > 7.00:
N#CCC(CC1CCN(S(=O)(=O)C2CC2)CC1)n1cc(-c2ccnc(Nc3ccc(N4CCOCC4=O)cc3)n2)cn1 (racemic) [Example 97, 4-(1-(cyclopropylsulfonyl)piperidin-4-yl)-3-(4-(2-(4-(3-oxomorpholino)phenylamino)pyrimidin-4-yl)-1H-pyrazol-1-yl)butanenitrile]
CN(C)C(=O)c1ccc(Nc2nccc(-c3cnn(C4(CC#N)CCN(S(=O)(=O)C5CC5)CC4)c3)n2)cc1 [Example 32, 4-(4-(1-(4-(cyanomethyl)-1-(cyclopropylsulfonyl)piperidin-4-yl)-1H-pyrazol-4-yl)pyrimidin-2-ylamino)-N,N-dimethylbenzamide]
N#CCC(C1CCCC1)n1cc(-c2ccnc(Nc3ccc(C(=O)N4CC[C@H](C#N)C4)cc3)n2)cn1 (mixture of isomers) [Example 225, (3S)-1-(4-(4-(1-(2-cyano-1-cyclopentylethyl)-1H-pyrazol-4-yl)pyrimidin-2-ylamino)benzoyl)pyrrolidine-3-carbonitrile]
CCS(=O)(=O)N1CC(CC#N)(n2cc(-c3ccnc(Nc4ccc(C(=O)N5CCC(N(C)C)C5)cc4)n3)cn2)C1 (racemic) [Example 282, 2-(3-(4-(2-(4-(3-(dimethylamino)pyrrolidine-1-carbonyl)phenylamino)pyrimidin-4-yl)-1H-pyrazol-1-yl)-1-(ethylsulfonyl)azetidin-3-yl)acetonitrile]
Cn1ccc(S(=O)(=O)N2CCC(CC(CC#N)n3cc(-c4ccnc(Nc5ccc(-n6cccn6)cc5)n4)cn3)CC2)n1 (racemic) [Example 56, 3-(4-(2-(4-(1H-pyrazol-1-yl)phenylamino)pyrimidin-4-yl)-1H-pyrazol-1-yl)-4-(1-(1-methyl-1H-pyrazol-3-ylsulfonyl)piperidin-4-yl)butanenitrile]
COCC(C)NC(=O)c1cccc(Nc2nccc(-c3cnn(C(CC#N)C4CCCC4)c3)n2)c1 (mixture of isomers) [Example 113, 3-(4-(1-(2-cyano-1-cyclopentylethyl)-1H-pyrazol-4-yl)pyrimidin-2-ylamino)-N-(1-methoxypropan-2-yl)benzamide]
N#CCC(C1CC1)n1cc(-c2ccnc(Nc3ccc(C(=O)N4CCOCC4)cc3)n2)cn1 (racemic) [Example 260, 3-cyclopropyl-3-(4-(2-(4-(morpholine-4-carbonyl)phenylamino)pyrimidin-4-yl)-1H-pyrazol-1-yl)propanenitrile]
CCS(=O)(=O)N1CCC(CC(CC#N)n2cc(-c3nc(Nc4ccc(N5CCOCC5)cc4)ncc3C)cn2)CC1 (racemic) [Example 48, 4-(1-(ethylsulfonyl)piperidin-4-yl)-3-(4-(5-methyl-2-(4-morpholinophenylamino)pyrimidin-4-yl)-1H-pyrazol-1-yl)butanenitrile]
N#CCC(C1CC1)n1cc(-c2ccnc(Nc3ccc(C(=O)N4C5CC6CC4CC(C5)O6)cc3)n2)cn1 (racemic) [Example 262, 3-cyclopropyl-3-(4-(2-(4-(2-oxa-6-azatricyclo[3.3.1.1(3,7)]dec-6-ylcarbonyl)phenyl)aminopyrimidin-4-yl)-1H-pyrazol-1-yl)propanenitrile]
CS(=O)(=O)Nc1cccc(Nc2nccc(-c3cnn(C(CC#N)C4CCCC4)c3)n2)c1 (racemic) [Example 115, N-(3-(4-(1-(2-cyano-1-cyclopentylethyl)-1H-pyrazol-4-yl)pyrimidin-2-ylamino)phenyl)methanesulfonamide]
N#CCC(C1CCCC1)n1cc(-c2ccnc(Nc3ccc(N4CCNCC4)cc3)n2)cn1 (racemic) [Example 41, 3-cyclopentyl-3-(4-(2-(4-(piperazin-1-yl)phenylamino)pyrimidin-4-yl)-1H-pyrazol-1-yl)propanenitrile]
CC1(C)CCOC12CCN(C(=O)c1ccc(Nc3nccc(-c4cnn(C(CC#N)C5CCCC5)c4)n3)cc1)C2 (mixture of isomers) [Example 220, 3-cyclopentyl-3-(4-(2-(4-(4,4-dimethyl-1-oxa-7-azaspiro[4.4]nonane-7-carbonyl)phenylamino)pyrimidin-4-yl)-1H-pyrazol-1-yl)propanenitrile]
N#CCC(C1CCCC1)n1cc(-c2ccnc(Nc3ccc(N4CCOC4=O)cc3)n2)cn1 (racemic) [Example 107, 3-cyclopentyl-3-(4-(2-(4-(2-oxooxazolidin-3-yl)phenylamino)pyrimidin-4-yl)-1H-pyrazol-1-yl)propanenitrile]
COc1ccc(Nc2ncc(C)c(-c3cnn(C(CC#N)C4CCCC4)c3)n2)cc1 (racemic) [Example 75, 3-cyclopentyl-3-(4-(2-(4-methoxyphenylamino)-5-methylpyrimidin-4-yl)-1H-pyrazol-1-yl)propanenitrile]
N#CCC1(n2cc(-c3ccnc(Nc4ccc(C(=O)N5CC[C@@H](O)C5)cc4)n3)cn2)CC(C#N)C1 (single isomer, unassigned) [Example 290]
N#CCC(C1CC1)n1cc(-c2ccnc(Nc3ccc(C(=O)N4CCC(C#N)CC4)cc3)n2)cn1 (racemic) [Example 318, 1-[4-({4-[1-(2-cyano-1-cyclopropylethyl)-1H-pyrazol-4-yl]pyrimidin-2-yl}amino)benzoyl]piperidine-4-carbonitrile]
CC(=O)N1CCN(C(=O)c2ccc(Nc3nccc(-c4cnn(C(CC#N)C5CCCC5)c4)n3)cc2)CC1 (racemic) [Example 224, 3-(4-(2-(4-(4-acetylpiperazine-1-carbonyl)phenylamino)pyrimidin-4-yl)-1H-pyrazol-1-yl)-3-cyclopentylpropanenitrile]
N#CCC(C1CCCC1)n1cc(-c2ccnc(Nc3cccc(C(=O)NCCO)c3)n2)cn1 (racemic) [Example 112, 3-(4-(1-(2-cyano-1-cyclopentylethyl)-1H-pyrazol-4-yl)pyrimidin-2-ylamino)-N-(2-hydroxyethyl)benzamide]
N#CCC(CC1CCN(C(=O)c2ccc(F)cc2F)CC1)n1cc(-c2ccnc(Nc3ccc(-n4ccnc4)cc3)n2)cn1 (racemic) [Example 1, 3-(4-(2-(4-(1H-imidazol-1-yl)phenylamino)pyrimidin-4-yl)-1H-pyrazol-1-yl)-4-(1-(2,4-difluorobenzoyl)piperidin-4-yl)butanenitrile]
N#CCC1(n2cc(-c3ccnc(Nc4ccc(C(N)=O)cc4)n3)cn2)CCN(S(=O)(=O)C2CC2)CC1 [Example 30, 4-(4-(1-(4-(cyanomethyl)-1-(cyclopropylsulfonyl)piperidin-4-yl)-1H-pyrazol-4-yl)pyrimidin-2-ylamino)benzamide]
N#CCC(C1CCCC1)n1cc(-c2ccnc(Nc3cccc(C(=O)N4CCC(O)CC4)c3)n2)cn1 (racemic) [Example 111, 3-cyclopentyl-3-(4-(2-(3-(4-hydroxypiperidine-1-carbonyl)phenylamino)pyrimidin-4-yl)-1H-pyrazol-1-yl)propanenitrile]
CS(=O)(=O)N1CCC(C(CC#N)n2cc(-c3ccnc(Nc4ccc(N5CCOCC5)cc4)n3)cn2)CC1 (racemic) [Example 24, 3-(1-(methylsulfonyl)piperidin-4-yl)-3-(4-(2-(4-morpholinophenylamino)pyrimidin-4-yl)-1H-pyrazol-1-yl)propanenitrile]
CO[C@H]1CCN(C(=O)c2ccc(Nc3nccc(-c4cnn(C(CC#N)C5CC5)c4)n3)cc2)C1 (mixture of isomers) [Example 265, 3-cyclopropyl-3-(4-(2-(4-((S)-3-methoxypyrrolidine-1-carbonyl)phenylamino)pyrimidin-4-yl)-1H-pyrazol-1-yl)propanenitrile]
N#CCC(C1CC1)n1cc(-c2ccnc(Nc3ccc(-n4cccn4)cc3)n2)cn1 (racemic) [Example 178, 3-(4-(2-(4-(1H-pyrazol-1-yl)phenylamino)pyrimidin-4-yl)-1H-pyrazol-1-yl)-3-cyclopropylpropanenitrile]
CCOC(=O)N1CCC(NC(=O)c2ccc(Nc3nccc(-c4cnn(C5(CC#N)CN(S(=O)(=O)CC)C5)c4)n3)cc2)CC1 [Example 284, Ethyl 4-(4-(4-(1-(3-(cyanomethyl)-1-(ethylsulfonyl)azetidin-3-yl)-1H-pyrazol-4-yl)pyrimidin-2-ylamino)benzamido)piperidine-1-carboxylate]
N#CCC(C1CC1)n1cc(-c2ccnc(Nc3ccc(N4CCCCC4=O)cc3)n2)cn1 (racemic) [Example 179, 3-cyclopropyl-3-(4-(2-(4-(2-oxopiperidin-1-yl)phenylamino)pyrimidin-4-yl)-1H-pyrazol-1-yl)propanenitrile]
CC(=O)N1CCN(C(=O)c2cccc(Nc3nccc(-c4cnn(C(CC#N)C5CCCC5)c4)n3)c2)CC1 (racemic) [Example 143, 3-(4-(2-(3-(4-acetylpiperazine-1-carbonyl)phenylamino)pyrimidin-4-yl)-1H-pyrazol-1-yl)-3-cyclopentylpropanenitrile]
